Reference: patent publication US9205122B2, “Herbal composition comprising ginger and goldenrod for the treatment of cold and flu” (priority 2009, dated 2015)
≈ marks a conversion by molar mass, not a printed value.

Columns and labels:
[1] = system: human influenza virus A/WS/33, H1N1; test: Plaque inhibition assay, influenza A/WS/33 on MDCK cell monolayer; type: cell-based; details: 0.05 mg/ml, read-out: inhibition of formation of lysis plaques
[2] = system: influenza strain A/WS/33 (H1N1); test: Mouse influenza infection model (preventive and curative arms); type: in vivo, CD-1 mice; details: curative arm, oral daily from day 0; Tamiflu 10, Nutracan 350 mg/kg
Procedure: Ginger, goldenrod and a combination thereof were assayed in a recognized animal model related to the prevention and treatment of the influenza virus (Cottey R, 2001). In this study, the ginger was assayed as a dry plant (rhizome) […] a CO2 extract. However, the relative quantity of the ginger dry plant used was equivalent to the ginger CO2 extract used in Example 1 (equivalent to the dry starting material). The ginger/goldenrod combination that was used also comprised blueberry dry powder. This formulation is named the Nutracan™ formulation and is described in Table II below.
In this model, CD-1 mice (10 females per group) were inoculated intranasally with the influenza strain A/WS/33 (H1N1) at 1×10^3 PFU as determined in a preliminary study (data not shown). […]
1) Seven groups of CD1 mice were randomized based on their weight (n=10). […] Mice were sacrificed when their general state (including abnormal behaviour, determined by a veterinarian) had deteriorated or they had lost more than 20% of their weight.

[3] = system: Human Influenza Virus A/CA/04/09 H1N1; test: organism not typed; type: cell-based; details: A/CA/04/09, MDCK, 72 h; mix as PL202:PL208
MDCK cells = details: no virus, 72 h, mix as PL202:PL208

Structure (SMILES) | inhibition at 50 µg/mL [1] [%] | MDD (mean day of death) [2] | IC50 [3] [µg/mL] | TC50 (MDCK cells) [µg/mL] | TC90 (MDCK cells) [µg/mL]
CCOC(=O)C1=C[C@@H](OC(CC)CC)[C@H](NC(C)=O)[C@@H](N)C1 [Tamiflu, Oseltamivir phosphate] | 52 | 7.6 | 0.1 | >10.3 | >10.3
NC(=O)c1ncn([C@@H]2O[C@H](CO)[C@@H](O)[C@H]2O)n1 [Ribavirin] | – | – | 5.26 (≈ 21.5 µM) | – | –
